From PMC5441580, “GPR40 partial agonist MK-2305 lower fasting glucose in the Goto Kakizaki rat via suppression of endogenous glucose production” (PLoS ONE, 2017)
Several values for one entry are separate records, joined by “and”; a condition that tells them apart may be missing. Equal values may be shown once.

Assays:
[1] = molecular target: T1, human GPR41 (FFAR3) (Homo sapiens, UniProt O14843); assay: cAMP (LANCE) functional assay, CHO cells expressing human GPR41; format: cell-based
T1 construct: expressed in transfected cells
T1 sequence (O14843 1-346): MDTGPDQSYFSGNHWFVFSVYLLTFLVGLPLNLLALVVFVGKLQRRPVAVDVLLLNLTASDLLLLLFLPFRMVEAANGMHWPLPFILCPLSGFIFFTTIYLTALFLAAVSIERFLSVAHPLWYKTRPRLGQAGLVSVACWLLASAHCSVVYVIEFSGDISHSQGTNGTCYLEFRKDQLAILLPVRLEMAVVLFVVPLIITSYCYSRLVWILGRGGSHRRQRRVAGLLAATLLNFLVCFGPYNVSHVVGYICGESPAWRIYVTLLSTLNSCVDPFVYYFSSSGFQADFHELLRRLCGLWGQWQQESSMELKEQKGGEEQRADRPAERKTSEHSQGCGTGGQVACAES
Protocol: CHO cells stably expressing human GPR41 or human GPR43 were harvested with non-enzymatic cell dissociation buffer and re-suspended in LANCE stimulation buffer (prepared as described by PE) at 0.25 million cells per ml (3.3 million cells per ml for GPR43) and 6 μl was then plated into each well of a 384-well Culturplate. Compounds were serially diluted in DMSO and then diluted further into stimulation buffer containing 2 μM forskolin (Sigma) at 2-times final concentration in the assay. 6 μl of the diluted compounds were then added to the assay plate and the plate incubated for 60 mins at room temperature. After the incubation, 12 μl of detection reagent (prepared as described by PE) was added to each well and the plates incubated one additional hour at room temperature. After the final incubation, the plates were read in a Perkin Elmer Envision reader with a method designed for Time-resolved fluorescence (TRF) assays (340 nm excitation, dual emission 615 and 655 nm). For each assay, a cAMP standard curve plate was also included. All fluorescent readings (using the 655/615 nm ratio) were converted to cAMP concentration using the cAMP standard curve and the percent activity at each concentration of test compound was determined using 0% activation (basal activity) determined in those wells containing DMSO alone, while 100% activity was determined in wells containing a concentration of agonist know to maximally activate the receptor.

[2] = tested on: pancreatic islets of Langerhans from GPR40−/− mice; assay: glucose stimulated insulin secretion (GSIS), isolated GPR40 KO islets; format: cell-based, mouse; conditions: 10 uM compound, 60 min, individual wells
Protocol: Pancreatic islets of Langerhans were isolated from wild-type and GPR40−/− mice (littermates) by collagenase digestion and discontinuous Ficoll gradient separation. […] Insulin secretion was determined by a 1 hr static incubation in Krebs-Ringer bicarbonate (KRB) buffer in a 96-well format as previously described. Briefly, islets were first preincubated in KRB medium with 2 mmol/l glucose for 30 min and were then transferred to a 96-well plate (three islets/well) and incubated with 200 μl of the KRB medium with 2 or 15 mmol/l glucose in the presence or absence of testing compounds for 60 min. The buffer was removed from the wells at the end of the incubation and assayed for insulin levels using the Ultrasensitive Rat Insulin ELISA kit (ALPCO, Salem, NH). All insulin secretion data were normalized by total islet numbers (ex: three islets/well), so the unit is secreted insulin (ng/ml) per islet.

[3] = protein binding assay in mouse plasma; format: in vitro ADME; conditions: read-out: free fraction
[4] = tested on: GK rats; assay: OGTT with insulin co-measurement on Day 13 of chronic treatment, parallel set of animals; format: in vivo, rat; design: Change in plasma insulin from baseline during OGTT (delta insulin): unit not given here; conditions: for Change in plasma insulin from baseline during OGTT (delta insulin): day 13, individual animals
Protocol: On the day of the study, male GK rats were bled via tail snip, and blood glucose was measured via glucometer (OneTouch Ultra, Lifescan Inc., Milpitas, CA). Fed glucose was measured at 8 A.M. (lights on 7 A.M.– 7 P.M.) and used to select and sort animals into treatment groups (n = 8/ GK group, plus n = 6/WKY control group). Animals were then placed into clean cages, and food was removed. After a 5 hr fast, glucose was measured at time = -60 min, followed by administration of vehicle plus or minus compound via oral gavage (PO) at a dosing volume of 5 ml/kg. Dosages from 0.3–10 mg MK-2305 / kg body weight were tested. Both the GK and WKY control groups received vehicle (0.5% methylcellulose). Blood glucose was measured again (time = 0) immediately prior to a dextrose challenge of 1 g/kg at 10 ml/kg dose volume (Dextrose, Hospira Inc., Lake Forrest IL) and then again at 20, 40, 60, and 120 min after the glucose challenge. Insulin was co-measured to test the glucose-dependent secretory response to MK-2305 delivered acutely PO. To capture insulin secretion during the OGTT, blood was collected at t = -60, 0, 20, 40, 60 min post glucose challenge. […] Values of percent inhibition vs. vehicle for each treatment were generated from the AUC data. Maximally efficacious dose (MED) was defined as the minimum dosage generating a maximum inhibition of glucose excursion achieved with this compound in the OGTT assay.
In a parallel set of animals (n = 30) treated with standard diet or MK-2305 at 30 mg/kg diet, an OGTT with insulin co-measurement was performed on Day 13. On the day of OGTT, n = 10 vehicle animals and n = 10 MK-2305-treated animals were administered 0.5% methylcellulose PO at a dosing volume of 5 ml/kg. For an acute comparison, n = 10 vehicle animals were administered MK-2305 at 30 mg/kg PO. The procedure for an acute OGTT was identical to that described above.

[5] = tested on: GK rats; assay: as above; format: in vivo, rat; design: unit not given here; conditions: Time 10, individual animals
[6] = tested on: GPR40 receptor; conditions: cited from earlier work

O=C1NC(=O)C(C2CCOc3cc(Oc4ccc(C(F)(F)F)cc4Cl)ccc32)S1 (stereo not drawn) [MK-2305]
% Activation ([1]; @ 25 μM): 85 @ 25 μM % and 85% | % Effect ([1]; Dose 1.267 nM): -32% | % Effect ([1]; Dose 3.801 nM): 0.634% | % Effect ([1]; Dose 34.208 nM): -2.75% | % Effect ([1]; Dose 102.624 nM): -4.7% | % Effect ([1]; Dose 307.872 nM): -36% | % Effect ([1]; Dose 923.617 nM): -18% | % Effect ([1]; Dose 2770.85 nM): -0.143% | % Effect ([1]; Dose 8312.55 nM): 50% | % Effect ([1]; Dose 24938 nM): 85% | EC50 ([1]; cAMP, CHO cells expressing human GPR41): 12.7 µM | secreted insulin per islet ([2]; 2mM glucose): 0.3958 ng/ml per islet and 0.3056 ng/ml per islet and 0.5799 ng/ml per islet and 0.6404 ng/ml per islet and 0.5029 ng/ml per islet and 1.032 ng/ml per islet and 0.612 ng/ml per islet and 0.7615 ng/ml per islet | secreted insulin per islet ([2]; 15 mM Glucose): 2.615 ng/ml per islet and 3.66 ng/ml per islet and 2.83 ng/ml per islet and 4.29 ng/ml per islet and 3.64 ng/ml per islet and 2.75 ng/ml per islet and 4.57 ng/ml per islet and 4.28 ng/ml per islet | fraction unbound [3]: 0.026 | Change in plasma insulin from baseline during OGTT (delta insulin) ([4]; Acute, 30 mpk, Time 0, 30 mg/kg): 0.309 and 1.604 and 0.324 and 0.21 and 0.156 and 0.86 and 1.776 and 0.805 and -0.061 and 0.012 | Change in plasma insulin from baseline during OGTT (delta insulin) ([4]; Acute, 30 mpk, Time 20, 30 mg/kg): 1.499 and 1.114 and 1.989 and 2.273 and 1.824 and -0.14 and 3.286 and 1.17 and 0.172 and 0.765 | Change in plasma insulin from baseline during OGTT (delta insulin) ([4]; Acute, 30 mpk, Time 60, 30 mg/kg): 0.099 and 0.177 and 0.004 and -0.004 and -0.413 and -0.187 and -0.251 and 0.259 and -0.133 and 0.416 | Change in plasma insulin from baseline during OGTT (delta insulin) ([4]; Acute, 30 mpk, Time -60): 0 | Change in plasma insulin from baseline during OGTT (delta insulin) ([4]; Chronic, 30 mkd, Time 0): 0.06 and -0.177 and -0.627 and -0.109 and -0.564 and -0.273 and 0.845 and 0.077 and 0.103 and 0.198 | Change in plasma insulin from baseline during OGTT (delta insulin) ([4]; Chronic, 30 mkd, Time 20): 0.473 and 0.233 and 0.417 and 0.389 and 0.164 and 0.072 and 0 and 0.34 and 0.387 and 0.196 | Change in plasma insulin from baseline during OGTT (delta insulin) ([4]; Chronic, 30 mkd, Time 60): -0.534 and -0.189 and -0.192 and 0.192 and -0.625 and -0.523 and -0.322 and -0.003 and -0.166 and -0.044 | Change in plasma insulin from baseline during OGTT (delta insulin) ([4]; Chronic, 30 mkd, Time -60): 0 | effect on plasma insulin after a glucose challenge ([4]; OGTT Day 13, 30 mg/kg acutely PO and chronically in diet, vs. vehicle): increased plasma insulin | Change in plasma insulin from baseline during OGTT (delta insulin) ([5]; Acute, 30 mpk, 30 mg/kg): 1.28 and 1.368 and 1.816 and 3.661 and 3.304 and 1.312 and 2.648 and 2.392 and 0.317 and 1.559 | Change in plasma insulin from baseline during OGTT (delta insulin) ([5]; Chronic, 30 mkd): 1.342 and 0.561 and 1.202 and 1.9 and 1.117 and 1.167 and 2.431 and 1.17 and 1.428 and 0.831 | binding site on GPR40 [6]: binds to the same site as other GPR40 partial agonists such as AMG837 and TAK-875 | effect on binding of AgoPAM's [6]: augments the binding of AgoPAM’s such as AM1638
